Experiments:
[1] = system: BCL-2(G4) (DNA, G4) AGGGGCGGGCGCGGGAGGAAGGGGGCGGGAGCGGGGCTG; assay: CD melting, 260 nm; conditions: K+ 100 mM; Figure S6 legend says Na+ 20 mM; Tris-HCl, pH 7.4; 20 μM B14, 2 μM DNA
[2] = system: GFAP, Iba-1, NF-κB, TNF-α and IL-6 in hippocampus of APP/PS1 mice; assay: Neuroinflammation markers in hippocampus; assay type: in vivo
Protocol: Protein samples (25–40 μg) were separated using 10 % SDS-PAGE and subsequently transferred onto PVDF membranes (0.22 μm, Servicebio, Guangzhou, China) via electro transfer. Following blocking with TBST solution (Servicebio, Guangzhou, China) containing 5 % BSA (Solarbio, Beijing, China) for approximately 60 min at room temperature, the membrane was exposed to various primary antibodies overnight at 4 °C on a rotating shaker. Then, the membranes were incubated with HRP-conjugated secondary antibody (Affinity, Changzhou, China) for 2 h. Protein bands were then detected using an ECL kit. The signal intensity of each target protein was quantified using Image J 1.8.0 software (Bio-Rad Laboratories, California, USA).
Five months old male APP/PS1 mice, weighing 25–33 g, were purchased from Guangdong Medical Laboratory Animal Center and housed in the Laboratory Animal Center of Sun Yat-sen University (Guangzhou, China) for experimentation. All procedures were approved by the Animal Care and Use Committee of Sun Yat-sen University and complied with legal requirements and national guidelines for the care and maintenance of laboratory animals (Approval No. SYSU-IACUC-2024-002032). The mice were housed in a specific pathogen-free environment with a controlled temperature of 22 ± 1 °C and a 12-h dark/light cycle. […]

[3] = system: Aβ1-42 aggregation in SH-SY5Y cells; assay: Fluorescence imaging of intracellular Aβ1-42 accumulation (ThT); assay type: cell-based; conditions: 25 μM Aβ1-42; 25 μM B14, 48 h
Protocol: SH-SY5Y cells were seeded in a 96-well plate (6000 cells/well) in 100 μL medium. After the cells adhered to the wall, SH-SY5Y cells were incubated with serum-free medium containing 25 μM Aβ1-42 for 6 h to allow for the uptake of Aβ1-42 into the cells. Then solutions of B14 at different concentrations were added to the cells, with the mixtures incubated for 48 h. After being washed for three times with pre-cooled PBS, the cells were fixed with freshly prepared 4 % paraformaldehyde (Servicebio, Guangzhou, China) for 10 min at room temperature. After being washed for three times with pre-cooled PBS, the cells were incubated with ThT solution for 20 min at 25 °C in the dark. After washing for three times with pre-cooled PBS, the cells were stained with 10 μg/mL Hoechst 33342 solution (Aladdin, Shanghai, China) for 20 min at 25 °C in the dark. After washing for three times with pre-cooled PBS, the stained cells were observed and photographed with a FV3000 (Olympus, Japan) fluorescence microscope.

HT-22 cells = assay: MTT cytotoxicity assay, HT-22; assay type: cell-based; conditions: Mus musculus, incubation for 48 h
Protocol: SH-SY5Y cells, HepG2 cells, HK-2 cells and HT-22 cells were seeded on 96-well plates (5.0×10^3 per well) with 100 μL of culture medium, and incubated for 12 h at 37 °C in a humidified atmosphere with 5% CO2, and then exposed to various concentrations of B14. After 48 h of treatment at 37 °C in a humidified atmosphere with 5% CO2, 100 μL of 0.5 mg/mL MTT solution was added to each well, and the mixture was further incubated for 4 h. The cells in each well were then treated with DMSO (200 μL for each well), and the culture medium was siphoned off, and the absorbance was recorded at 570 nm. All drug doses were parallel tested in triplicate, and the cytotoxicity was evaluated based on the percentage of cell survival in a dose-dependent manner regarding the negative control. The final IC50 values were determined by using Graph Pad Prism 9.0.

APP/PS1 transgenic mice = assay: Histopathological examination (HE) of vital organs; conditions: mouse, in vivo
Excerpt: Five months old male APP/PS1 mice, weighing 25–33 g, were purchased from Guangdong Medical Laboratory Animal Center and housed in the Laboratory Animal Center of Sun Yat-sen University (Guangzhou, China) for experimentation. All procedures were approved by the Animal Care and Use Committee of Sun Yat-sen University and complied with legal requirements and national guidelines for the care and maintenance of laboratory animals (Approval No. SYSU-IACUC-2024-002032). The mice were housed in a specific pathogen-free environment with a controlled temperature of 22 ± 1 °C and a 12-h dark/light cycle. The mice were fed with a standard diet, and 30 mice were randomly divided into 6 groups (N = 5). Compound B14 was dissolved in saline and administered at doses of 10, 20, or 40 mg/kg. APP/PS1 male mice were grown until 6 months of age, and then injected intraperitoneally with compound B14 every other day for 60 days. Behavioral experiments were then conducted, and tissue specimens were collected for biochemical analysis.
The mice were sacrificed, with their brains and organs isolated and embedded in paraffin. The brains and organs were then sectioned into 6 μm thin slices. These slices were subjected to H&E or Nissl staining (Servicebio, Guangzhou, China). The stained sections were subsequently imaged and analyzed by using microscopy.
Figure S11. […]

[4] = system: VEGF gene transcription in SH-SY5Y cells; assay: Real-time RT-PCR in SH-SY5Y cells, VEGF; assay type: cell-based, human
Protocol: SH-SY5Y cells were treated with or without B14, and total RNA was subsequently isolated and purified. Reverse transcription was performed using a cDNA synthesis kit. The relative transcription levels of the genes were evaluated through quantitative real-time PCR using the SYBR Green-based method, as described in the Supplementary Date. Details regarding the primer sequences and the raw data can be found in Table S7 and Table S8.
^a -∆∆Ct = -[(Ct value of genes in treated sample - Ct value of genes in control) - (Ct value of β-actin in treated sample - Ct value of β-actin in control)]. ^b F: The relative expression fold.
Experiment 1: SH-SY5Y cells were treated with different concentration of B14. The Ct values of BAX, VEGF, CMYC and BCL-2 were obtained.
Total RNA was extracted from cells and mice liver tissue using RNAiso Plus (Takara, 9109, Japan). Following sample homogenization, chloroform was added, and the solution was allowed to have phase separation into an upper aqueous layer (containing RNA), an interphase, and a lower organic layer (containing DNA and proteins). RNA was precipitated from the aqueous phase using isopropanol, while DNA was precipitated from the aqueous-organic interphase using ethanol. Complementary DNA (cDNA) was synthesized using the One-Step RT-PCR Kit (Takara, Cat#639503, Japan).
Quantitative real-time polymerase chain reaction (qRT-PCR) was performed using the 2× RealStar SYBR Mixture (GenStar, Cat# A301-10, Guangzhou, China) on a LightCycler 480 II real-time PCR system (Roche, USA). Data were analyzed using the 2^−ΔΔCt method. Actin served as the internal control, and relative mRNA levels were normalized accordingly.

O=C(CCN1CCOCC1)Nc1ccc2c(c1)c(=O)c1cc(NC(=O)CCN3CCOCC3)ccc1n2-c1ccc2occc2c1 [Compound B14]
ΔTm [1]: -3.13 °C | activation of astrocytes (GFAP) and microglia (Iba-1) [2]: reduce the activations of astrocytes | expressions of inflammatory factors [2]: decrease the expressions of the inflammatory factors NF-κB, TNF-α and IL-6 | ThT fluorescence of SH-SY5Y cells (intracellular Aβ1-42 aggregation) [3]: almost completely disappeared | IC50 (HT-22 cells): > 100 µM | histopathology of heart, liver, spleen, lungs, kidney (APP/PS1 transgenic mice): no significant detrimental effect for these organs | -∆∆Ct, VEGF ([4]; 6.25 μM B14): -0.01 | F = 2^-∆∆Ct (relative expression fold), VEGF ([4]; 6.25 μM B14): 1.00 | -∆∆Ct, VEGF ([4]; 12.5 μM B14): -0.01 | F = 2^-∆∆Ct (relative expression fold), VEGF ([4]; 12.5 μM B14): 1.00 | -∆∆Ct, VEGF ([4]; 25 μM B14): -0.03 | F = 2^-∆∆Ct (relative expression fold), VEGF ([4]; 25 μM B14): 1.02
